Measurements as given in ChEMBL document CHEMBL1201862, “PubChem BioAssay data set” (2004).
Active and inactive are the calls of the source.

Assays:
[1] = target: T1, Heat shock 70 kDa protein 1A (Homo sapiens, UniProt P0DMV8); experiment: small-molecule inhibition of Hsp70 – biochemical, TR-FRET (AID 786)
[2] = target: T2, RNA-binding protein pos-1 (Caenorhabditis elegans, UniProt G5EF15); experiment: disruptors of C. elegans POS-1 RNA interaction – biochemical, fluorescence polarization, dose response (AID 1964);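 note: purified POS-1 fused to maltose binding protein made in E. coli; potency of compounds blocking POS-1 binding to fluorescent RNA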
T2 sequence (G5EF15 whole entry): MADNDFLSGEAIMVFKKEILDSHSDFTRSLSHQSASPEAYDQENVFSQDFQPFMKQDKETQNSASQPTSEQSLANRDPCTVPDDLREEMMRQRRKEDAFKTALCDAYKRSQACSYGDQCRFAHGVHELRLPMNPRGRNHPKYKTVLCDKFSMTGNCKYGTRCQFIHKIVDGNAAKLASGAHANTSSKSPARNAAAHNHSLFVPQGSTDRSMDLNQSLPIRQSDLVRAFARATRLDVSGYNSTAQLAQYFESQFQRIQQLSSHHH

[3] = target: T1, Heat shock 70 kDa protein 1A; experiment: small molecules displacing fluorescent ligand from Hsp70 – biochemical, fluorescence polarization, primary screen (AID 583)
[4] = target: T3, Zinc finger protein mex-5 (Caenorhabditis elegans, UniProt Q9XUB2); experiment: potency of MEX-5 RNA-binding blockers – biochemical, C. elegans, fluorescence polarization, dose response (AID 1960)
T3 sequence (Q9XUB2 whole entry): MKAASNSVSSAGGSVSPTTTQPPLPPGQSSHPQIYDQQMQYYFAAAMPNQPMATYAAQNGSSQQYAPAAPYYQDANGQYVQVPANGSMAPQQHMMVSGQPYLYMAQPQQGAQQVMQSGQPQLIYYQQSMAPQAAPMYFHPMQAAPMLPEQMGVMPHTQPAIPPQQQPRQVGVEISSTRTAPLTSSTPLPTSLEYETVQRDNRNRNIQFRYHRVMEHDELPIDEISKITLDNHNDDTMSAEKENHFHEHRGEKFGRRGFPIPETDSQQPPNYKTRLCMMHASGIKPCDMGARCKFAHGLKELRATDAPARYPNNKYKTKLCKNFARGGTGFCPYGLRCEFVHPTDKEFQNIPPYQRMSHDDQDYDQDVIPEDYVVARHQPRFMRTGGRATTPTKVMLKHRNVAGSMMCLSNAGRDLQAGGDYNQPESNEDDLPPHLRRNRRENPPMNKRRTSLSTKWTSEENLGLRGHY

[5] = target: T4, Endoribonuclease toxin MazF (Escherichia coli K-12, UniProt P0AE70); experiment: activation of MazEF endoribonuclease cleavage – biochemical, fluorescence, single-stranded RNA substrate, uHTS hits, dose response (AID 588481); format: functional
T4 sequence (P0AE70 whole entry): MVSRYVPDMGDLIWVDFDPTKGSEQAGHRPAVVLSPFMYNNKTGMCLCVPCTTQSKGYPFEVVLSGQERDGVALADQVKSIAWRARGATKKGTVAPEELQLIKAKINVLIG

[6] = target: T4, Endoribonuclease toxin MazF; experiment: substrate-only fluorescence increase artefacts – biochemical, single-stranded RNase substrate, counter-screen for MazEF activator project, dose response (AID 588502); format: functional
HEK293 = experiment: Fluorescence-based counterscreen for potentiators or agonists of NPY-Y2: cell-based high-throughput dose response assay to identify inhibitors of cyclic nucleotide gated ion channel (CNGC) activity. In this assay, the parental HEK293 cell line transfected with a cyclic-nucleotide gated ion channel (CNGC)-based cAMP sensor is used to measure inhibition of isoproterenol-induced CNGC activity by test compound.; format: functional; details: Homo sapiens;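 note: stimulus is 1 µM isoproterenol at EC100 plus PDE inhibitor Ro 20-1724 at 25 µM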
[7] = target: T5, Neuropeptide Y receptor type 2 (Homo sapiens, UniProt P49146); experiment: Fluorescence-based cell-based high-throughput dose response assay for agonists of NPY-Y2. [Related pubchem assays: 1703 (Screening assay (CNGC inhibitors).), 1359 (Screening assay (NPY-Y2 potentiators or agonists).), 1304 (Screening assay (NPY-Y1 potentiators or agonists).), 1710 (Screening assay (NPY-Y2 agonists).), 1791 (Summary AID.)]; format: functional
T5 sequence (P49146 whole entry): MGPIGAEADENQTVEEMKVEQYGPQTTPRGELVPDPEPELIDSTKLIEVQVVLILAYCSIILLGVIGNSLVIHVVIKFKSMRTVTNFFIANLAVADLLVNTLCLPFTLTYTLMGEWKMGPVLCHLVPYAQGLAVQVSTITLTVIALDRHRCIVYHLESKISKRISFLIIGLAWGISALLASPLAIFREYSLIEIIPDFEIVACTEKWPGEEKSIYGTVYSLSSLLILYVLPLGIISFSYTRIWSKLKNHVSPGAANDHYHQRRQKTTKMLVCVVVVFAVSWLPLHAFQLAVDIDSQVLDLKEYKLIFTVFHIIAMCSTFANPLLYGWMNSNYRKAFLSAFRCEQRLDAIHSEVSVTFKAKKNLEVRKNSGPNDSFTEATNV

[8] = target: T6, Neuropeptide Y receptor type 1 (Homo sapiens, UniProt P25929); experiment: Fluorescence-based counterscreen for agonists of NPY-Y2: cell-based high-throughput dose response assay for agonists of NPY-Y1.; format: functional
T6 sequence (P25929 whole entry): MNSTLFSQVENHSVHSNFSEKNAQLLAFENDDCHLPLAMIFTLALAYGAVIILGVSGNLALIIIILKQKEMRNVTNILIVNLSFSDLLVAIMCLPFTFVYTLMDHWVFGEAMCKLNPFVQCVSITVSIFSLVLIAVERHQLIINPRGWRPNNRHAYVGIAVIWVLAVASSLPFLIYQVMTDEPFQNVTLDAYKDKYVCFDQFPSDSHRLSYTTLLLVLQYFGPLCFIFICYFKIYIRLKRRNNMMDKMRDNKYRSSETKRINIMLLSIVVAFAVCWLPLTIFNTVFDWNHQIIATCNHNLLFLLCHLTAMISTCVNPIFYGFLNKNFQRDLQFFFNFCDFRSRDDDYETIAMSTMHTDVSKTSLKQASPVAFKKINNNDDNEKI

T1 sequence (P0DMV8 whole entry, the tested form may be a part): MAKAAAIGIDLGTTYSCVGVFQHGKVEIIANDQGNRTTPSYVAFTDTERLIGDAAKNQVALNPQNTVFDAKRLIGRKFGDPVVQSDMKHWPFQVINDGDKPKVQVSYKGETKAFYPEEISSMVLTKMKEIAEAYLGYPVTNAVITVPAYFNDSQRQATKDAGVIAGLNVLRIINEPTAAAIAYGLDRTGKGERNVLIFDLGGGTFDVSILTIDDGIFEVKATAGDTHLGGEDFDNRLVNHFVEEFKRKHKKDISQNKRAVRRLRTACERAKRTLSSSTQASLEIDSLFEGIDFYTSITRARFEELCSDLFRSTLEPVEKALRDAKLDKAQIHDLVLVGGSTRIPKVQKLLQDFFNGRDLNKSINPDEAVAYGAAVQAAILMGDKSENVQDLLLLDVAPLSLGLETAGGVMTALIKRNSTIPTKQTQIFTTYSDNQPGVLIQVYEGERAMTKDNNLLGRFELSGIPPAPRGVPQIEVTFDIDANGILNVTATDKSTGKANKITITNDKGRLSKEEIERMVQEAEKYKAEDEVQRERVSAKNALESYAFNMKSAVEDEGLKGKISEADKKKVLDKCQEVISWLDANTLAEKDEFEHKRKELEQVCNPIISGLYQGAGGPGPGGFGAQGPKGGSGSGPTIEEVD

| SMILES | IC50 [1] | EC50 [2] | IC50 [3] | EC50 [4] | EC50 [5] | EC50 [6] | EC50 (HEK293) | EC50 [7] | EC50 [8] |
| --- | --- | --- | --- | --- | --- | --- | --- | --- | --- |
| CCOn1c(=O)c(-c2cc3ccccc3o2)[n+]([O-])c2ccccc21 | > 100 µM (not active) | 13.4 µM (inconclusive) | > 100 µM (not active) | 180 µM (inconclusive) | > 99 µM (inactive) | 30.9 µM (inactive) | – | – | – |
| O=C(Cc1ccc(Cl)cc1)Nc1cccc(S(=O)(=O)Nc2ccccc2F)c1 | – | – | – | – | – | – | 10.2 µM (not active) | 15.7 µM (not active) | 15.7 µM (not active) |
